Laboratory results reported in ChEMBL document CHEMBL1201862, “PubChem BioAssay data set” (2004).
The source made the active and inactive calls.

Key:
HEK293 [1] = test: NOD2 signaling inhibitors in MDP-stimulated cells, cell-based, uHTS, luminescence (AID 2001); format: functional; conditions: Homo sapiens
[2] = molecular target: Nucleotide-binding oligomerization domain-containing protein 2 (Homo sapiens, UniProt Q9HC29); test: NOD2 signaling inhibitors, cell-based, luminescence, uHTS, HEK293 (AID 1566); format: functional
[3] = molecular target: T1, Replicative DNA helicase DnaB (Mycobacterium tuberculosis, UniProt P9WMR3); test: DnaB intein splicing inhibitors, dose response, biochemical, cell-free fluorescence (AID 449749); format: functional
T1 sequence (P9WMR3 whole entry): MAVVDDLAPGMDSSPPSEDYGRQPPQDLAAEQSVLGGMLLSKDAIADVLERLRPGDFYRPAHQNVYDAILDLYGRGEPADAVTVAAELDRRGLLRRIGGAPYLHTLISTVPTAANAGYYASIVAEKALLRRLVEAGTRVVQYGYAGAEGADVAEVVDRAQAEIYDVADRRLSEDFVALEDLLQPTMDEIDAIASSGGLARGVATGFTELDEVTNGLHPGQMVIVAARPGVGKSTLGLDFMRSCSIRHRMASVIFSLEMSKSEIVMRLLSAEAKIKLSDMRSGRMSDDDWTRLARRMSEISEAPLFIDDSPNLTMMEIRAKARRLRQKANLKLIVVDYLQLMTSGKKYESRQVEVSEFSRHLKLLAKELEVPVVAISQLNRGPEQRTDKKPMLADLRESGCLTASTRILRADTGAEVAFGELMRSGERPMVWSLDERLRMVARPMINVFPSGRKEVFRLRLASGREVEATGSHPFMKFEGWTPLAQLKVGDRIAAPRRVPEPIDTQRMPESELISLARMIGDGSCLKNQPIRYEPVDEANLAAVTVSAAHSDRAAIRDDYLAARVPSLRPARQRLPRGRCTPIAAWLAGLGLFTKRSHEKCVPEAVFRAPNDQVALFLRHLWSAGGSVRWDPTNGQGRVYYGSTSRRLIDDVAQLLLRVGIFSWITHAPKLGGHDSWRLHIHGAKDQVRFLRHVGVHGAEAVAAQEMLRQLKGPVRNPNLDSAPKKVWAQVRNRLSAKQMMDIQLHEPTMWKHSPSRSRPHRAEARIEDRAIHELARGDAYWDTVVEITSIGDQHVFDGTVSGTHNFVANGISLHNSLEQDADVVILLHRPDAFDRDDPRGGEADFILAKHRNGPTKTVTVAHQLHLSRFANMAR

HEK293 [4] = test: cells; format: functional, cell-based; conditions: Homo sapiens
[5] = cytotoxicity toward DRD oncogenic fibroblasts, dose response, cell-based, non-viral oncogenic, luminescence (AID 1934); format: functional; conditions: Homo sapiens
HEK293 [6] = test: NOD1 signaling inhibitors, primary screen, cell-based, luminescence, uHTS (AID 1578); format: functional; conditions: Homo sapiens
HEK293 [7] = test: cells; format: functional, cell-based; conditions: Homo sapiens; remark: listed apart in the source
HEK293 [8] = test: cells; format: functional, cell-based; conditions: Homo sapiens; remark: listed apart in the source
BJ [9] = test: cells; format: functional, cell-based; conditions: Homo sapiens
[10] = molecular target: T2, Microphthalmia-associated transcription factor (Homo sapiens, UniProt O75030); test: TRPM1 promoter luciferase signal decrease, dose response, MITF inhibitor project, cell-based, SK-MEL-5, cherry-picked, set 3 (AID 493073); format: functional
T2 sequence (O75030 whole entry): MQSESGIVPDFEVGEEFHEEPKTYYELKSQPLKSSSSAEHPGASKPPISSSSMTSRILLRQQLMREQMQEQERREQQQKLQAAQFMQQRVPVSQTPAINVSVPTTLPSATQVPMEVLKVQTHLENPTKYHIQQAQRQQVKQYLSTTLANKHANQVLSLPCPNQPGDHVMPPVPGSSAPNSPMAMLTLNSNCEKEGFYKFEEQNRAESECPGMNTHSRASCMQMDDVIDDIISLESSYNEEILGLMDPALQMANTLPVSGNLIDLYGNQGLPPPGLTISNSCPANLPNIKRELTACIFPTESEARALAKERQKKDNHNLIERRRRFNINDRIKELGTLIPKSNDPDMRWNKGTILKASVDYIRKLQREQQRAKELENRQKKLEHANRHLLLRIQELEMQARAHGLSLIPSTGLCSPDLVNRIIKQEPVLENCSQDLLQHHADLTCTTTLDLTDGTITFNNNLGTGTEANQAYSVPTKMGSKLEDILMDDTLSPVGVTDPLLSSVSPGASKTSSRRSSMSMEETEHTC

Protein RecA = molecular target: T3, Protein RecA (Mycobacterium tuberculosis, UniProt P9WHJ3); test: Fluorescence Cell-Free Homogeneous Dose Retest to Identify Inhibitors of RecA-Intein Splicing Activity. [Related pubchem assays (depositor defined):AID2097, AID2223, AID489010, AID492950]; format: functional
T3 sequence (P9WHJ3 whole entry): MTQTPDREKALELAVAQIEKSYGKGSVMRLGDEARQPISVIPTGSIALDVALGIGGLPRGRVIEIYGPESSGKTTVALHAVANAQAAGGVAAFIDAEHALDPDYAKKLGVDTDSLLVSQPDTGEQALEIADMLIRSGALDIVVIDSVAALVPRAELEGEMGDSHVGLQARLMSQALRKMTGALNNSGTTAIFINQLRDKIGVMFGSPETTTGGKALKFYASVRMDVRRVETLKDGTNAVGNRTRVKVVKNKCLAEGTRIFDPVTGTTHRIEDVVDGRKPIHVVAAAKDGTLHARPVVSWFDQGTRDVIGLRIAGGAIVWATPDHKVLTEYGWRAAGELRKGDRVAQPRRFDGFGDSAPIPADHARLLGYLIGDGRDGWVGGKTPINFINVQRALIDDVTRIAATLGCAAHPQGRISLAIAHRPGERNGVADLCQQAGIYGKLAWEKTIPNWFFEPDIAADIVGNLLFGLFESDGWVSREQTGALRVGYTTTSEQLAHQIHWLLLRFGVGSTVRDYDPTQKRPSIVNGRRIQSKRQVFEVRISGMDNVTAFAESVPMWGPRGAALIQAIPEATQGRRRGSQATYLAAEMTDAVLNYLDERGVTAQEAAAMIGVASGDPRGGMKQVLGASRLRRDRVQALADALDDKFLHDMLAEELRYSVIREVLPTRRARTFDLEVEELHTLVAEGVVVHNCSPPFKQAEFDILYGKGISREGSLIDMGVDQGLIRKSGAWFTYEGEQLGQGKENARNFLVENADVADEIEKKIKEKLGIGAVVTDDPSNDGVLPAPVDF

BJ [11] = test: cytotoxicity toward BJ-TERT-LT-ST fibroblasts, dose response, cell-based, RAS-independent, luminescence (AID 1935); format: functional; conditions: Homo sapiens;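 note: BJ fibroblasts immortalized with TERT plus LT and ST oncogenes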
BJ [12] = test: cytotoxicity toward BJ-TERT fibroblasts, dose response, cell-based, RAS-independent, luminescence (AID 1933); format: functional; conditions: Homo sapiens
[13] = molecular target: Glyceraldehyde-3-phosphate dehydrogenase (Homo sapiens, UniProt P04406)
[14] = molecular target: T4, Alkaline phosphatase, tissue-nonspecific isozyme (Homo sapiens, UniProt P05186); test: human TNAP enzyme inhibitors, SAR follow-up, biochemical, luminescent, dose response (AID 1056)
T4 sequence (P05186 whole entry): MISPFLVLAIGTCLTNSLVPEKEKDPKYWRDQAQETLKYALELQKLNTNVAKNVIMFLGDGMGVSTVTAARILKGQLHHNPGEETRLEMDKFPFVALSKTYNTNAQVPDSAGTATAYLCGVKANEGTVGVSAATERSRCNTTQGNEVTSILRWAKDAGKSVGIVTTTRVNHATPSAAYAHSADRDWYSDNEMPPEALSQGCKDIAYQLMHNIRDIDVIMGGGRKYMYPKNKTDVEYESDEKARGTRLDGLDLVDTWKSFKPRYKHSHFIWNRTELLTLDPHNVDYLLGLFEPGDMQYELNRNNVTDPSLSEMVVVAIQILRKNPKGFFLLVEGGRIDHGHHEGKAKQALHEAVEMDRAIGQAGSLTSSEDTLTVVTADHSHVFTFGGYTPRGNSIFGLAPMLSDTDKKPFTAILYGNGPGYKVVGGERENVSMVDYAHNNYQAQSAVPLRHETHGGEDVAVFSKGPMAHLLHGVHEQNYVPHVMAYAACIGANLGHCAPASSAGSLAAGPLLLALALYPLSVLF

Sequence of Nucleotide-binding oligomerization domain-containing protein 2 (Q9HC29 whole entry, the tested form may be a part): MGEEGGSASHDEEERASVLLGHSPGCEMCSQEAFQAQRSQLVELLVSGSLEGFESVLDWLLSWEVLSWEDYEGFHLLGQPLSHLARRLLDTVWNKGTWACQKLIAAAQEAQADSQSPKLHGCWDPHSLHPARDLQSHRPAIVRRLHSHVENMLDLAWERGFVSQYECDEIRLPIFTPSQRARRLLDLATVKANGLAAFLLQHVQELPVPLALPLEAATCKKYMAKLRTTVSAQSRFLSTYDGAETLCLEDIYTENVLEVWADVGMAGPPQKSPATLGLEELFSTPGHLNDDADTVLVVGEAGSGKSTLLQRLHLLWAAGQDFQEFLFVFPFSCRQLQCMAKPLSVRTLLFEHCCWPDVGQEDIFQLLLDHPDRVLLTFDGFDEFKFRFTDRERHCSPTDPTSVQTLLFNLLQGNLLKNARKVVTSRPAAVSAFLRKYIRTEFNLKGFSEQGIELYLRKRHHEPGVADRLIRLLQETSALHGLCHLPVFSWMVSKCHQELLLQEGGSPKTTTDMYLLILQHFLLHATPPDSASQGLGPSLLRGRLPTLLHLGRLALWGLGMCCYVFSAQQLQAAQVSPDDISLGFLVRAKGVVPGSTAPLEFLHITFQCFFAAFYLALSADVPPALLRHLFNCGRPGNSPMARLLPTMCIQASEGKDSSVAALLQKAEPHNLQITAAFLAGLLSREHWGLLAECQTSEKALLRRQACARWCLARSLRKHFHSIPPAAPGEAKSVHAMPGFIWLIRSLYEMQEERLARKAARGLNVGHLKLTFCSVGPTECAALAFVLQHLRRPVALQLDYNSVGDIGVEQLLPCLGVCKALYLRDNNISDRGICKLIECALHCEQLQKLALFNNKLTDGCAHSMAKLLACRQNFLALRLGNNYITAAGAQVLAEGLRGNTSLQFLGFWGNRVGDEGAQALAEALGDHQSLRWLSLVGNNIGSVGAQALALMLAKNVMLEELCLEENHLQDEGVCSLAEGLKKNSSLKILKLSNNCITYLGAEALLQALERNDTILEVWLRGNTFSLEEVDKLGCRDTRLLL
Sequence of Glyceraldehyde-3-phosphate dehydrogenase (P04406 whole entry): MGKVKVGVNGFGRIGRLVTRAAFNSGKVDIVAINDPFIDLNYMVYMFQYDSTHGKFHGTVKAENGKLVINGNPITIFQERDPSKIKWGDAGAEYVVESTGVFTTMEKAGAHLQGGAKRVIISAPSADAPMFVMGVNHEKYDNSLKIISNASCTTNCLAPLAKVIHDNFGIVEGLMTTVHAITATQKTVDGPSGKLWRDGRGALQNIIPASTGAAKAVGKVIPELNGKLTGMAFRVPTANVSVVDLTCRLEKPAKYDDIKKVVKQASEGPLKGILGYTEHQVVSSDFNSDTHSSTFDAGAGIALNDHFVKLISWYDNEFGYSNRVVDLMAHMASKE

| SMILES | IC50 (HEK293 [1]) | EC50 [2] | AC50 [3] | IC50 (HEK293 [4]) | EC50 [5] | EC50 (HEK293 [6]) | IC50 (HEK293 [7]) | IC50 (HEK293 [8]) | EC50 (BJ [9]) | AC50 [10] | EC50 (Protein RecA) | EC50 (BJ [11]) | EC50 (BJ [12]) | IC50 [13] | IC50 [14] |
| --- | --- | --- | --- | --- | --- | --- | --- | --- | --- | --- | --- | --- | --- | --- | --- |
| O=C(CCl)Nc1cccc(S(=O)(=O)N2CCCCCC2)c1 | 8.19 µM (active) | 19.6 µM (active) | 23.5 µM (active) | 4.83 µM (active) | 9.38 µM (active) | 10.1 µM (active) | > 20 µM (inactive) | > 20 µM (inactive) | 22 µM (active) | 11.8 µM (active) | 22.6 µM (active) | 10.7 µM (active) | 4.64 µM (inconclusive) | – | – |
| CC(C)CCn1c(Sc2nc3ccccc3o2)nc2c1c(=O)[nH]c(=O)n2C | 5.79 µM (active) | – | > 380 µM (inconclusive) | 7.89 µM (active) | – | > 20 µM (inactive) | – | > 20 µM (inactive) | – | – | 4.76 µM (active) | – | – | – | – |
| COc1ccc(C(C)C)cc1S(=O)(=O)Nc1cccnc1 | – | – | – | – | – | – | – | – | – | – | – | – | – | > 100 µM (not active) | > 100 µM (inactive) |
| COCCN(Cc1ccccc1)C(=O)c1cc(-c2ccc(OC)c(OC)c2)nc2ccccc12 | > 20 µM (inactive) | > 20 µM (inactive) | – | > 20 µM (inactive) | – | > 20 µM (inactive) | 16.3 µM (active) | > 20 µM (inactive) | – | – | – | – | – | – | – |
